From patent publication US5821231A, “CS-1 peptidomimetics, compositions and methods of using same” (Cytel Corporation, priority 1995, dated 1998)
Square brackets hold non-standard residues; d marks the D form. Peptide text beside a SMILES is read from it. * marks the point of attachment. PhAc = O=C(Cc1ccccc1)*

Tests used:
BALB/c mice = experiment: Adoptive transfer delayed type hypersensitivity in mice (oxazolone); assay type: in vivo, mouse; settings: initial study; 6 mg/kg/day s.c. pump, 24-hour; FIG. 5
Method: An adoptive transfer delayed-type hypersensitivity murine model has been developed using splenic T cells primed to oxazolone. This model is described in Elices et al., Clin. Exp. Rheum., 11(Suppl. 8):577-580 (1993), whose procedures were followed here.
Thus, BALB/c mice were shaved on the belly and painted (50 μl on the belly and 5 μl on each paw) with three percent oxazolone in acetone/olive oil (4:1) at days zero and 1. At day 5, the mice were sacrificed, their spleens removed, and splenic T cells were obtained via nylon wool columns.
Normal saline or saline containing 25×10^6 /animal of the oxazolone-immune T cells were separately injected into naive mice. The mice were then challenged by painting 10 μl of 2 percent oxazolone onto one ear each. All procedures were carried out under sterile conditions and in endotoxin-free buffers.
Prior to challenge or saline injection, the mice were implanted with pumps that subcutaneously administered normal saline, normal saline containing the compound, Compound ID No. 896.52, N-phenylacetyl-Leu-Asp-Phe-D-Pro-NH2, or normal saline containing a compound with a scrambled sequence continually at 6 mg/kg/day for a 24-hour time period. The swelling diameter at the site of challenge or saline injection was measured with a microcaliper 24 hours thereafter.
An expanded study was carried out as described above except that a scrambled compound control was not used as a control for further inhibitor compounds of Table 1 with larger groups of mice. Statistical analyses were carried out versus injection of vehicle alone.

[1] = system: New Zealand white rabbits; experiment: Rabbit heterotopic cardiac allograft model; assay type: in vivo
From the text: New Zealand white female rabbits (Charles River Lab., Saint Laurent, Quebec), between 3.5 and 4 kg underwent heterotopic cardiac transplant following an experimental protocol previously described [Alonso et al., Am. J. Pathol., 87:415-442 (1977); Clausell et al., Circulation, 89:2768-2779 (1994)]. The animals were unselected to favor an HLA-mismatch, the host rabbits were Pasteurella-free and the donors, outbred animals. Both host and donor rabbits were fed Purina 5321-0.5 percent cholesterol diet (Research Diets Inc., New Brunswick, N.J.), a strategy that has proven useful in accelerating the process of allograft arteriopathy [Alonso et al., Am, J. Pathol., 87:415-442 (1977)]. The diet was commenced four days prior to the transplant and continued in the recipient of the transplant until the completion of the experimental period.
The technique of heterotopic cardiac transplantation has been previously described [Clausell et al., Circulation, 89:2768-2779 (1994)]. Briefly, a vertical incision was performed in the anterior aspect of the neck of the recipient rabbit and the left common carotid artery and the ipsilateral external jugular vein were isolated. The cardiac allograft was placed in the neck by anastomosing the aorta end-to-side to the recipient's carotid artery and the pulmonary end-to-side to the recipient's external jugular vein, following a total period of ischemia for the donor hearts of approximately 30 minutes. Postoperative care was in compliance with the Principles of Laboratory Animal Care formulated by the Canadian National Society for Medical Research.
Beginning the day of the transplant, the animals were randomized and treated with either scrambled compound (control group) at 1 mg/kg s.c. or the inhibitor compound at 1 mg/kg s.c. The doses of the compounds were empirically extrapolated to the in vivo model based on preliminary in vitro studies, of Table 1. No other immunosuppression therapy was administered. The grafts were monitored daily by palpation and maintained for 7 to 8 days, a previously described endpoint that was associated with myocardial rejection (impaired cardiac contractility) and development of the allograft arteriopathy in this model [Clausell et al., Circulation, 89:2768-2779 (1994)]. A total of fourteen animals were studied in the control (n=7) and treated (n=7) groups.
The animals were sacrificed using a lethal dose of euthanol (480 mg i.v.) (MTC Pharmaceutical, Cambridge, ON), host and donor hearts were removed, and the coronary arteries were perfused with saline through the aorta, followed by light fixation by perfusion with 2 percent paraformaldehyde (Sigma, St, Louis, Mo.). […] Different sections of the hearts were either saved in 10 percent formalin (BDH Inc., Toronto, ON) for light microscopy studies or immediately frozen in O.T.C. Compound Tissue Tek (Miles Inc., Elkart, Ind.) for specific immunohistochemistry studies.
Three different paraffin-embedded tissue sections from host and donor hearts from both control and treated rabbits were stained by the Movat pentachrome method for light microscopy. Morphometric analysis was performed using a Zeiss microscope attached to a computer-generated video analysis system (Perceptics Inc., NuVision software), as described in Clausell et al., Circulation, 89:2768-2779 (1994). The number of vessels with intimal lesions were counted in all three heart sections from each animal studied and are expressed as a percentage of the total vessel number.
In the host hearts, 999 vessels in the control group and 1054 vessels in the treated group were analyzed. In the donor hearts, 827 vessels in the control group and 617 vessels in the treated group were analyzed. To determine the severity of intimal thickening, the diameter of each traceable vessel in all three sections was measured and the coronary arteries were categorized as small (diameter <100 μm), medium (diameter >100<500 μm) and large (diameter >500 μm). […]

[2] = system: Porcine peripheral blood lymphocytes; experiment: In vitro porcine allograft model: transendothelial lymphocyte migration; assay type: cell-based; settings: 10 μg/ml in the medium; IL-1β-stimulated SMC
Method: A similar study was carried out in vitro using porcine coronary artery endothelial cells (EC; as are present in the IEL) and smooth muscle cells (SMC; as are present in the medial layer of the artery). The two cell types were cultured using a membrane transwell system, with the SMC on the bottom layer in M-199 medium (Gibco Labs.). The SMC were stimulated with 100 ng/ml of interleukin-1β (IL-1β) for 24 hours prior to the start of the assay. Porcine peripheral blood lymphocytes were separated by Ficoll-Hypaque, radiolabeled and incubated overnight (about 18 hours) on the EC.

asthmatic sheep = experiment: Treatment of asthmatic sheep (Ascaris suum antigen, crossover); assay type: in vivo; settings: nebulized 1 mg/kg; FIG. 7
Method: Six asthmatic sheep were treated in a double blind cross-over study. […] This study was carried out generally as described in Abraham et al., J. Clin. Invest., 93:776-787 (1994).
The inhibitor compound used here was Compound ID No. 896.52, N-phenylacetyl-Leu-Asp-Phe-D-Pro-NH2, with a control compound that comprised the previously described compound having the same residues in a scrambled sequence. The vehicle for the nebulized compounds was phosphate-buffered saline. The compounds were administered at a dose of 1 mg/kg each, twice a day for three days prior to challenge, as well as 0.5 hours prior to and four hours post challenge on day 4. Because this was a crossover study, each animal received one or the other treatment, followed by a rest and then the other treatment. Each animal therefore served as its own control.
Post challenge airway responsiveness was also assayed. Here, specific lung resistance, SRL, returned to baseline values 24 hours after challenge, however, the sheep were hyperresponsive to inhaled carbachol at that time.

SMILES: CC(C)C[C@H](NC(=O)[C@H](CC(=O)O)NC(=O)Cc1ccccc1)C(=O)N[C@@H](Cc1ccccc1)C(=O)N1CCC[C@@H]1C(N)=O [N-phenylacetyl-Asp-Leu-Phe-D-Pro-NH2, reference compound] (PhAc-DLF[dP]-NH2)
- reduction of inflammation (swelling diameter at challenge site) (BALB/c mice): no reduction of inflammation
- Vessel Intimal Thickening: Percent of Vessels ([1]; donor heart, 1 mg/kg s.c.): 88%
- Vessel Intimal Thickening: Severity (Percent of Vessel area) ([1]; donor heart, 1 mg/kg s.c.): 36%
- Baseline of incidence of intimal thickening ([1]; rabbit own host heart): 1%
- Baseline of severity of intimal thickening ([1]; rabbit own host heart): 12%
- reduction of transendothelial lymphocyte migration [2]: did not reduce migration
- change from baseline specific lung resistance (SRL) on challenge (asthmatic sheep): had an increase in that pulmonary function (SRL)
